The text below walks through data of US6254898A, “Nutraceutical composition for protection against solar radiation” (Protective Factors, Inc., priority 2000, dated 2001).

The target in experiment [1] is T1, Trypsin Type III from bovine pancreas (Bos taurus, UniProt P00760).
T1 construct: purchased Sigma; host or cells: bovine pancreas
T1 sequence (P00760 24-246): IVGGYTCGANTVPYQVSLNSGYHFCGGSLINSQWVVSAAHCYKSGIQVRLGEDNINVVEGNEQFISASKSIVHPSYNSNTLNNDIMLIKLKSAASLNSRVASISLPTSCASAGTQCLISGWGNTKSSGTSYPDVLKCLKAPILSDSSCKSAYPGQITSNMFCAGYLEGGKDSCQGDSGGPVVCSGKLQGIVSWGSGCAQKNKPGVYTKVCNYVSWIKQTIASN
Kind of experiment: Trypsin inhibitory activity (BAPNA substrate). The format is biochemical. Conditions: at the dilutions tested for the blend. As for the experimental part: Serine protease inhibitory activity was determined in vitro by measuring the trypsin inhibitory activity of the blend and its components. Trypsin inhibitory activity was determined by the spectrophotometric determination of the release of p-nitroaniline from a synthetic substrate N-α-benzoyl-DL-arginine-p-nitroanilide hydrochloride (BAPNA) (Parellada, J. and Guinea, M., J. Nat. Prod., 58: 823-829, 1995; Geiger, R. and Fritz, H., In Methods of Enzymatic Analysis, Bergmeyer, H. V., et al (Eds), Verlag-Chemie, Basel, Switzerland, Vol. V, p. 119-129, 1984).
Trypsin Type III from bovine pancreas, BAPNA, and p-nitroaniline were obtained from Sigma. The inventive blend and its components were supplied in a capsule containing: green tea extract, 250 mg; lutein, 15 mg; Se, 50 mcg; and lipoic acid, 50 mg. The capsule's contents were extracted in ethanol [0.5 g (contents of one capsule) in 5 ml ethanol and the components at concentrations incorporated in the blend in 5 ml ethanol].
Aliquots of the enzyme solution (0.25 ml of a 1060 units/ml solution in 0.05 M Tris buffer, pH 7.8) and the buffer (0.25 ml) with various concentrations of the test extracts and without extracts (reference solution) were pre-incubated at 37° C. for 10 min. Blank samples were prepared by inactivating the enzyme with 0.5 ml of 2 M acetic acid before incubation. The enzymatic reaction was started by adding to the reaction mixture 1.25 ml of the substrate solution (1 mM in 0.05 M Tris buffer, pH 7.8). The mixture was incubated for 10 min and the reaction was stopped by adding 0.5 ml of 2 M acetic acid. The p-nitroaniline released was measured using a spectrophotometer at 410 nm. The results are the means ±SD of triplicate measurements. The inhibitory activity is expressed as the inhibition ratio represented by the following formula: [formula]

The subject of experiment [2] is fibroblast cell line BALB/3T3 clone A31. In words: UV protecting activity: viability of UVA-irradiated fibroblasts (MTT assay). The format is cell-based, mouse. Conditions: UVA-irradiated BALB/3T3 cells. How it is done:
Exposure of skin to sunlight especially to ultraviolet A (320-380 nm) radiation has been reported to induce photochemical generation of reactive oxygen species, resulting in membrane lipid peroxidation, photodamage to DNA, and inactivation of fibroblasts. […] A mammalian fibroblast cell line was used to determine the UV-protective action of the blend and the components at a cellular level.
Dulbecco's Modified Eagle Medium (DMEM) with 4 mM L-glutamine and 110 mg/l sodium pyruvate, Dulbecco's phosphate buffered saline (DPBS) without calcium or magnesium, fetal bovine serum, trypsin-EDTA solution, 2-thiobarbituric acid, MTT, and trichloroacetic acid were obtained from Sigma. […] The capsule's contents were extracted in ethanol [0.5 g (contents of one capsule) in 5 ml ethanol and the components at concentrations incorporated in the blend in 5 ml ethanol]. The extracts were diluted using the culture medium or DPBS.
Cells were maintained in 250 ml Corning flasks having a 0.2 μ vented cap in 10 ml of DMEM supplemented with 10% fetal bovine serum. The cultures were incubated at 37° C. in a CO2 incubator with 90% air and 10% CO2. The cells were subcultured every 5 days.
Assays were performed in 35 mm Costar tissue culture plates. The cells were plated at a density of 90,000 cells per well in the growth medium and allowed to attach and grow for 48 hr. The medium was changed after 36 hr with fresh medium containing the extracts at different concentrations. After 12 hr of incubation with the test extracts, the cells were washed with DPBS to remove the original medium. One ml of DPBS with or without the test extracts was added to each dish. The cells were incubated for 1 hr before exposure to UV irradiation. Non-irradiated cells were used as the control. […] Biophys. […] The results are the means ±SD of triplicate measurements.

Experiment [3] in a line: DPPH radical reduction (cell-free spectrophotometric assay). The class given is biochemical. The following applies: at the dilutions tested. How it is done:
(§1) The cytotoxic effects of ultraviolet A irradiation on mammalian cells (e.g., skin fibroblasts) have been attributed largely to photoreactions that generate reactive oxygen species, such as superoxide and hydrogen peroxide. The free radical scavenging activity of the blend and its components was determined in vitro using spectrophotometric assays (Yen, G. C. and Duh, P. D., J. Agric. Food Chem., 42: 629-632, 1994; Facino, R. M., Carini, M., Aldini, G., Berti, F., and Rossoni, G., Planta Med., 65: 614-619, 1999). The superoxide scavenging activity was assessed in a non-enzymatic system. The reduction of the stable free radical DPPH (2,2-diphenyl-1-picrylhydrazyl radical), indicative of the neutralizing action upon the already formed free radicals, also was determined in a cell-free system. […]
(§2) The superoxide scavenging activity was determined in a superoxide generating system containing 20 μM of phenazine methosulfate, 156 μM of β-NADH, 50 mM of phosphate buffer, and the extracts at various levels. The reaction was initiated by adding nitroblue tetrazolium (25 μM) and the reduction was monitored using a spectrophotometer at 556 nm. […] The reduction in absorbence was measured using a spectrophotometer at 515 nm. […] The percent inhibition is expressed as the quenching ratio represented by the following formula: [formula]

A short description of experiment [4]: Superoxide scavenging activity in a non-enzymatic superoxide generating system. The class given is biochemical. The following applies: at the dilutions tested. As for the experimental part:
as §1, §2

Molecules are shown by their SMILES.

With `CC1=C[C@H](O)CC(C)(C)[C@H]1/C=C/C(C)=C/C=C/C(C)=C/C=C/C=C(C)/C=C/C=C(C)/C=C/C1=C(C)C[C@@H](O)CC1(C)C` [lutein], the “trypsin: activity of the components” value in experiment [1] is listed as “active”. The “UV protection: activity of the components” value (“UV protection: activity” for short) in experiment [2] is reported as “active”. Moreover, the “DPPH: activity among the four components” value in experiment [3] is recorded as “most active”.

For `O=C(O)CCCCC1CCSS1` (stereo not shown) [lipoic acid, 6,8-thioctic acid], in experiment [1], the “trypsin: activity of the components” value is given as “active”. For the same compound, the “superoxide: activity among the four components” value in experiment [4] is reported as “most active”. Further, in experiment [2], the “UV protection: activity” value is reported as “active” and the “range of concentrations at which the component was active in the UV protection assay” value fell in the range of 0.001 to 1 mg/mL.

`C[Se]CC[C@H](N)C(=O)O` [selenium, selenomethionine]: in experiment [1], the “trypsin: activity of the components” value is “active”. In experiment [2], the “UV protection: activity” value was “active” and the “range of concentrations at which the component was active in the UV protection assay” value was 1e-06 to 0.001 mg/mL.
